Entries after “also recorded” stand apart in the source; their conditions may differ.
Experiments:
[1] = test system: IMR-90; test: Alcohol toxicity, MTT cell viability assay, IMR-90; type: cell-based, human; conditions: 24 h, vs untreated control
Description: (§1) MTT cell viability assay.
(§2) Alcohol toxicity is disclosed in Table 3: Alcohol toxicity was assessed by exposure of the cells to a given concentration of alcohol to a limit of 3 wt %. Cell activity was determined after 24 h and compared to an untreated control. Data is reported as percentage remaining cell activity (vs control) in 3% alcohol in three individual cell lines. The greater the percentage of remaining activity, the lower the toxicity of the alcohol to the cell line. Thus, Hep G2 cells exposed to 3 wt % 2-ethylhexanol retained 91.2% activity, whereas Hep G2 cells exposed to 3 wt % 2-ethylbutanol retained only 74.6% activity. Thus 2-ethylhexanol is less toxic to Hep G2 cells than 2-ethylbutanol.

[2] = test system: Hep G2; test: Alcohol toxicity, MTT cell viability assay, Hep G2; type: cell-based, human; conditions: 24 h, vs untreated control
Description: as §1, §2

[3] = test system: LLC-PK1; test: Alcohol toxicity, MTT cell viability assay, LLC-PK1; type: cell-based, porcine; conditions: 24 h, vs untreated control
Description: as §1, §2

[4] = Solubility of API/dyes with ACA monomers (visual); type: physicochemical; conditions: typically 5.0 mg in 100 ul monomer, 24 h; for Solubility of CBZ in the monomer (blend): cabazitaxel
Description: Solubility and degree of polymerization were monitored visually.
Where the result is given as ‘soluble’, the API was soluble in the choose monomer with no visual residue, and there can be used as a combination to prepare API loaded nanoparticles. If the results are given as insoluble or partially, it is an indication that this combination cannot be used to prepared API loaded nanoparticles.

[5] = test system: Hep G2 cell line and LLC-PK1
Description: Cell lines: The cell lines were used for determining alcohol cytotoxicity Hep G2 (Human liver cancer cell line), LLC-PK1 (Porcine kidney cell line) and IMR-90 (Human lung fibroblast cell line). All medium was fortified with 10% (w/v) fetal calf serum albumin (Sigma) and 100 units/ml penicillin/streptomycin (PenStrep®, Sigma). All cell lines were obtained from ATCC and were routinely tested for mycoplasma. Cells growing in 24- or 96-well plates were incubated with serial dilutions of the alcohol for 24 h, at 37° C. in an atmosphere of 5% CO2. The toxicity was assessed the commonly used MTT (3-(4,5-dimethylthiazol-2-yl)-2,5-diphenyltetrazolium bromide) cell viability assay.
MTT cell viability assay. The cells were incubated for 24 with the different nanoparticles/substances. The cell medium was then aspirated and exchanged with 100 μl of medium containing a final concentration of 250 μg MTT/ml. The incubation was continued for 3 h at 37° C. for formation of the formazan-particles, which were dissolved in DMSO with 1% (v/v) NH4Cl. The absorbance was read in a plate reader (Biosys Ltd, Essex, UK) at 570 nm, and background from absorbance at 650 nm was subtracted.

## CCCCCO [1-pentanol]
[1]
  Cell activity remaining at 3.00 wt % alcohol (%), IMR-90: 57.1%
[2]
  Cell activity remaining at 3.00 wt % alcohol (%), Hep G2: 63.3%
[3]
  Cell activity remaining at 3.00 wt % alcohol (%), LLC-PK1: 83.4%

## CCCCC(CC)CO (stereo not drawn) [2-ethylhexanol]
[1]
  Cell activity remaining at 3.00 wt % alcohol (%), IMR-90: 7.9%
[2]
  Cell activity remaining at 3.00 wt % alcohol (%), Hep G2: 91.2%
[3]
  Cell activity remaining at 3.00 wt % alcohol (%), LLC-PK1: 79.8%

## CCCCCCCCO [1-octanol (control), 1-octanol, reference compound]
[1]
  Cell activity remaining at 3.00 wt % alcohol (%), IMR-90: 0.9%
[2]
  Cell activity remaining at 3.00 wt % alcohol (%), Hep G2: 69.8%
[3]
  Cell activity remaining at 3.00 wt % alcohol (%), LLC-PK1: 1.8%

## CCCCCC(C)O (stereo not drawn) [2-heptanol]
[1]
  Cell activity remaining at 3.00 wt % alcohol (%), IMR-90: 50.7%
[2]
  Cell activity remaining at 3.00 wt % alcohol (%), Hep G2: 73.9%
[3]
  Cell activity remaining at 3.00 wt % alcohol (%), LLC-PK1: 81.1%

## C=C(C#N)C(=O)OC(CC)CCCC (stereo not drawn) [3-HPCA, 3-heptyl cyanoacrylate]
[4]
  Solubility of CBZ in the monomer (blend): Soluble
  Solubility of Alpelisib in the monomer (blend): Soluble
  Solubility of Mupirocin in the monomer (blend): Partially
  Solubility of Oxaliplatin in the monomer (blend): Insoluble

## CCCCCCCO [1-heptanol]
[1]
  Cell activity remaining at 3.00 wt % alcohol (%), IMR-90: 58.3%
[2]
  Cell activity remaining at 3.00 wt % alcohol (%), Hep G2: 72.3%
[3]
  Cell activity remaining at 3.00 wt % alcohol (%), LLC-PK1: 61.8%

## 1-butanol [1-butanol (control), reference compound]
[1]
  Cell activity remaining at 3.00 wt % alcohol (%), IMR-90: 59.7%
[2]
  Cell activity remaining at 3.00 wt % alcohol (%), Hep G2: 61.8%
[3]
  Cell activity remaining at 3.00 wt % alcohol (%), LLC-PK1: 81.8%

## C=C(C#N)C(=O)OC(C)CCCCC (stereo not drawn) [2-HPCA, 2-heptyl cyanoacrylate]
[4]
  Solubility of CBZ in the monomer (blend): Soluble
  Solubility of Alpelisib in the monomer (blend): Soluble
  Solubility of Mupirocin in the monomer (blend): Soluble; also recorded: able to dissolve
  Solubility of Oxaliplatin in the monomer (blend): Insoluble

## C=C(C#N)C(=O)OCCc1ccccc1 [2-PECA, 2-phenylethyl cyanoacrylate]
[4]
  Solubility of CBZ in the monomer (blend): dissolves
  Solubility of Alpelisib in the monomer (blend): dissolves
  Solubility of Oxaliplatin in the monomer (blend): dissolves

## CCC(O)CC [3-pentanol]
[1]
  Cell activity remaining at 3.00 wt % alcohol (%), IMR-90: 84.6%
[2]
  Cell activity remaining at 3.00 wt % alcohol (%), Hep G2: 89.7%
[3]
  Cell activity remaining at 3.00 wt % alcohol (%), LLC-PK1: 78.6%

## OCCc1ccccc1 [2-phenylethanol]
[1]
  Cell activity remaining at 3.00 wt % alcohol (%), IMR-90: 0.6%
[2]
  Cell activity remaining at 3.00 wt % alcohol (%), Hep G2: 0.9%
[3]
  Cell activity remaining at 3.00 wt % alcohol (%), LLC-PK1: 1.1%
[5]
  Toxicity at 3% alcohol: significant toxicity

## C=C(C#N)C(=O)OCC(CC)CC [EBCA (control), 2-ethylbutyl cyanoacrylate, reference compound]
[4]
  Solubility of Belinostat in the monomer (blend): not

## C=C(C#N)C(=O)OCCC(C)C [3-MBCA, 3-methylbutyl cyanoacrylate]
[4]
  Solubility of CBZ in the monomer (blend): Soluble
  Solubility of Alpelisib in the monomer (blend): Soluble
  Solubility of Mupirocin in the monomer (blend): Insoluble
  Solubility of Oxaliplatin in the monomer (blend): Insoluble

## C=C(C#N)C(=O)OCCCCCCCC [OCA (control), 1-octyl cyanoacrylate, reference compound]
[4]
  Solubility of Mupirocin in the monomer (blend): insoluble

## C=C(C#N)C(=O)OC(CC)CC [3-PCA, 3-pentyl cyanoacrylate]
[4]
  Solubility of CBZ in the monomer (blend): Soluble
  Solubility of Alpelisib in the monomer (blend): Soluble
  Solubility of Mupirocin in the monomer (blend): Soluble; also recorded: able to dissolve
  Solubility of Oxaliplatin in the monomer (blend): Insoluble

## CCCCC(O)CC (stereo not drawn) [3-heptanol]
[1]
  Cell activity remaining at 3.00 wt % alcohol (%), IMR-90: 81.7%
[2]
  Cell activity remaining at 3.00 wt % alcohol (%), Hep G2: 81.4%
[3]
  Cell activity remaining at 3.00 wt % alcohol (%), LLC-PK1: 96.4%

## CC(C)CCO [3-methylbutanol]
[1]
  Cell activity remaining at 3.00 wt % alcohol (%), IMR-90: 67.6%
[2]
  Cell activity remaining at 3.00 wt % alcohol (%), Hep G2: 72.4%
[3]
  Cell activity remaining at 3.00 wt % alcohol (%), LLC-PK1: 94.3%

## CCC(CC)CO [2-ethylbutanol (control), 2-ethylbutanol, reference compound]
[1]
  Cell activity remaining at 3.00 wt % alcohol (%), IMR-90: 69.1%
[2]
  Cell activity remaining at 3.00 wt % alcohol (%), Hep G2: 74.6%
[3]
  Cell activity remaining at 3.00 wt % alcohol (%), LLC-PK1: 86.2%

## C=C(C#N)C(=O)OCCCCC [1-PCA, 1-pentyl cyanoacrylate]
[4]
  Solubility of CBZ in the monomer (blend): Soluble
  Solubility of Alpelisib in the monomer (blend): Soluble
  Solubility of Mupirocin in the monomer (blend): Insoluble
  Solubility of Oxaliplatin in the monomer (blend): Insoluble

## CC(C)(C)CCO [3,3-dimethylbutanol]
[1]
  Cell activity remaining at 3.00 wt % alcohol (%), IMR-90: 81.7%
[2]
  Cell activity remaining at 3.00 wt % alcohol (%), Hep G2: 84.8%
[3]
  Cell activity remaining at 3.00 wt % alcohol (%), LLC-PK1: 98.2%

## C=C(C#N)C(=O)OCCCCCCC [1-HPCA, 1-heptyl cyanoacrylate]
[4]
  Solubility of CBZ in the monomer (blend): Soluble
  Solubility of Alpelisib in the monomer (blend): Soluble
  Solubility of Belinostat in the monomer (blend): Soluble
  Solubility of Docetaxil in the monomer (blend): Soluble
  Solubility of Mupirocin in the monomer (blend): Insoluble
  Solubility of Oxaliplatin in the monomer (blend): Insoluble

## C=C(C#N)C(=O)OCCC(C)(C)C [3,3-DMBCA, 3,3-dimethyl-1 butyl cyanoacrylate]
[4]
  Solubility of CBZ in the monomer (blend): Soluble
  Solubility of Alpelisib in the monomer (blend): Soluble
  Solubility of Mupirocin in the monomer (blend): Insoluble
  Solubility of Oxaliplatin in the monomer (blend): Insoluble

— patent US12357581B2, “Nanoparticles comprising copolymeric or homopolymeric compounds which comprise cyanoacrylate subunits” (SINTEF TTO AS, priority 2019, dated 2025)
